Test results: patent publication US20250304990A1, “HERBICIDE RESISTANCE” (SYNGENTA CROP PROTECTION AG, priority 2021, published 2025)
Values joined by “and” are separate entries in the source; they are usually repeats but may differ in a detail not shown here. Identical values can stand only once.

Tests used:
[1] = test system: Cf-496-2; experiment: Dose response test, growth in 96-well plates; type: cell-based, Chlorella fusca; details: strain Cf-496-2; no growth, visual inspection
[2] = test system: Cf-496-47; experiment: Dose response test, growth in 96-well plates; type: cell-based, Chlorella fusca; details: strain Cf-496-47; no growth, visual inspection
[3] = test system: D4426 (V263A mutant Oryza sativa HST) containing tobacco plant; experiment: Herbicide damage score after spraying, Example 4; type: in vivo; details: T1 B5u 500 gai/ha; D4426 V263A; averaged across transgenic population
Procedure: (§1) In order to determine if the newly discovered mutations detailed in Example 1 confer resistance to HST inhibiting compounds when expressed in plants, GM tobacco lines were produced and tested with HST inhibiting compounds. Transgenic tobacco plants expressing the Oryza sativa HST gene with and without mutations were tested.
(§2) Populations of transgenic tobacco comprising 20-30 transgenic events per plant transformation constructs were generated as described in Example 2. These lines were clonally propagated and 1 clone per event was sprayed with 500, 100 or 50 g ai/ha of compound 1+0.2% (w/v) Genapol X080 with a spray volume of 200 L/Ha. (“g ai/ha” refers to grams of active compound per hectare).
(§3) Herbicidal damage was visually assessed across the population and a herbicide damage score given at 7 and 14 days. A score of 0 indicates no visible damage or stunting whereas a score of 100 indicates a complete death of the plant. 20 transgenic events (i.e. individual transgenic plants) from each GM tobacco line were transplanted to soil 1 week prior to spraying with HST inhibiting compounds. WT tobacco was included as a control. The mutated genes are identified in Table 16 below.
(§4) The values in Tables 17 to 23 below refer to percentage of damage to the tested plants and show the damage scores for 20 populations of plants expressing either Oryza sativa WT HST gene (SEQ ID NO. 18), the Oryza sativa HST mutated gene according to SEQ ID NO. 47, the Oryza sativa HST mutated gene according to SEQ ID NO. 48, the Oryza sativa HST mutated gene according to SEQ ID NO. 49, the Oryza sativa HST mutated gene according to SEQ ID NO. 50, or the Oryza sativa HST mutated gene according to SEQ ID NO. 51. A control population of wild-type Samsun tobacco was also assessed for herbicide damage. […] However the mutated versions of the HST gene carrying the F262I, V263A, […], or F266L mutations (SEQ ID NOs: 47, 48, 50 or 51) clearly display increased tolerance.

[4] = test system: WT tobacco; experiment: Herbicide damage score after spraying, Example 4; type: in vivo; details: T1 B5u 500 gai/ha; WT tobacco (Example 4); per plant
Procedure: as §1, §2, §3, §4

[5] = test system: D4429 (F266L mutant Oryza sativa HST) containing tobacco plant; experiment: Herbicide damage score after spraying, Example 4; type: in vivo; details: T1 B5u 500 gai/ha, averaged across transgenic population
Procedure: as §1, §2, §3, §4

[6] = test system: D4425 (F262I mutant Oryza sativa HST) containing tobacco plant; experiment: Herbicide damage score after spraying, Example 4; type: in vivo; details: T1 B5u 500 gai/ha, averaged across transgenic population
Procedure: as §1, §2, §3, §4

[7] = test system: D4424 (WT Oryza sativa HST) containing tobacco plant; experiment: Herbicide damage score after spraying, Example 4; type: in vivo
Procedure: as §1, §2, §3, §4

[8] = test system: D4427 (T264N mutant Oryza sativa HST) containing tobacco plant; experiment: Herbicide damage score after spraying, Example 4; type: in vivo; details: T1 B5u 500 gai/ha
Procedure: as §1, §2, §3, §4

[9] = test system: D4428 (F266I mutant Oryza sativa HST) containing tobacco plant; experiment: Herbicide damage score after spraying, Example 4; type: in vivo; details: T1 B5u 500 gai/ha, averaged across transgenic population
Procedure: as §1, §2, §3, §4

[10] = test system: D4294 (T278N mutant Arabidopsis thaliana HST) containing tobacco plant; experiment: Herbicide damage score after spraying, Example 3; type: in vivo; details: T1 B5u 500 gai/ha; D4294 T278N; averaged across transgenic population
Procedure: as §1, with “lines are to be” for “lines were”, “the Arabidopsis” for “the Oryza sativa”
(§5) Populations of transgenic tobacco comprising 20-30 transgenic events per plant transformation constructs were generated as described in Example 2. These lines were clonally propagated and 1 clone per event was sprayed with 500, 100 or 50 g ai/ha of compound 1+0.2% Genapol X080 with a spray volume of 200 L/Ha (“g ai/ha” refers to grams of active compound per hectare).
as §3, with “control.” for “control. The mutated genes are identified in Table 16 below.”
(§6) The values in Tables 8 to 14 below refer to percentage of damage to the tested plants and show the damage scores for 20 populations of plants expressing either Arabidopsis WT HST gene (SEQ ID NO. 14), the Arabidopsis HST mutated gene according to SEQ ID NO. 27, the Arabidopsis HST mutated gene according to SEQ ID NO. 28, the Arabidopsis HST mutated gene according to SEQ ID NO. 29, the Arabidopsis HST mutated gene according to SEQ ID NO. 30, or the Arabidopsis HST mutated gene according to SEQ ID NO. 31. A control population of wild-type Samsun tobacco was also assessed for herbicide damage. […] However the mutated versions of the HST gene carrying the F276I, V277A, F280I or F280L mutations (SEQ ID NOs: 27, 28, 30 or 31) clearly display increased tolerance.

[11] = test system: WT tobacco; experiment: Herbicide damage score after spraying, Example 3; type: in vivo; details: T1 B5u 500 gai/ha; WT tobacco control; per plant
Procedure: as §1, with “lines are to be” for “lines were”, “the Arabidopsis” for “the Oryza sativa”
as §5
as §3, with “control.” for “control. The mutated genes are identified in Table 16 below.”
as §6

[12] = test system: D4293 (V277A mutant Arabidopsis thaliana HST) containing tobacco plant; experiment: Herbicide damage score after spraying, Example 3; type: in vivo; details: T1 B5u 500 gai/ha, averaged across transgenic population
Procedure: as §1, with “lines are to be” for “lines were”, “the Arabidopsis” for “the Oryza sativa”
as §5
as §3, with “control.” for “control. The mutated genes are identified in Table 16 below.”
as §6

[13] = test system: D4295 (F280I mutant Arabidopsis thaliana HST) containing tobacco plant; experiment: Herbicide damage score after spraying, Example 3; type: in vivo; details: T1 B5u 500 gai/ha, averaged across transgenic population
Procedure: as §1, with “lines are to be” for “lines were”, “the Arabidopsis” for “the Oryza sativa”
as §5
as §3, with “control.” for “control. The mutated genes are identified in Table 16 below.”
as §6

[14] = test system: D4291 (WT Arabidopsis thaliana HST) containing tobacco plant; experiment: Herbicide damage score after spraying, Example 3; type: in vivo
Procedure: as §1, with “lines are to be” for “lines were”, “the Arabidopsis” for “the Oryza sativa”
as §5
as §3, with “control.” for “control. The mutated genes are identified in Table 16 below.”
as §6

[15] = test system: D4292 (F276I mutant Arabidopsis thaliana HST) containing tobacco plant; experiment: Herbicide damage score after spraying, Example 3; type: in vivo; details: T1 B5u 500 gai/ha, averaged across transgenic population
Procedure: as §1, with “lines are to be” for “lines were”, “the Arabidopsis” for “the Oryza sativa”
as §5
as §3, with “control.” for “control. The mutated genes are identified in Table 16 below.”
as §6

## Cc1nn(C)c(=O)c(-c2c(F)ccc(Cl)c2CCc2ccc(C(F)(F)F)cc2)c1OC(=O)C(C)C [B5u, [5-[3-chloro-6-fluoro-2-[2-[4-(trifluoromethyl)phenyl]ethyl]phenyl]-1,3-dimethyl-6-oxo-pyridazin-4-yl]2-methylpropanoate]
[1]
  LD (lethal dose): 6.25 ppm
[2]
  LD (lethal dose): >100 ppm
[3]
  Average percentage damage: 24%
[4]
  percentage of damage: 98% and 97% and 96% and 95%
[5]
  Average percentage damage: 40%
[6]
  Average percentage damage: 38%
[7]; T1 B5u 500 gai/ha, D4424, mutation n.a., averaged across transgenic population
  Average percentage damage: 31%
[7]; overexpression of Oryza sativa HST gene (SEQ ID NO.18) in tobacco
  tolerance to herbicide: does not increase tolerance
[8]; D4427 OsHST V003 T264N, per event
  percentage of damage: 50%
[8]; D4427 T264N, averaged across transgenic population
  Average percentage damage: 67%
[9]
  Average percentage damage: 56%
[10]
  Average percentage damage: 76%
[11]
  percentage of damage: 95% and 90%
[12]
  Average percentage damage: 22%
[13]
  Average percentage damage: 35%
[14]; T1 B5u 500 gai/ha, D4291, mutation n.a., averaged across transgenic population
  Average percentage damage: 55%
[14]; overexpression of Arabidopsis HST gene (SEQ ID NO.14) in tobacco
  tolerance to herbicide: does not increase tolerance
[15]
  Average percentage damage: 28%
